Six substances from patent publication US20120214862A1, “MODULATION OF FACTOR 7 EXPRESSION” (ISIS Pharmaceuticals, Inc., priority 2009, published 2012) can be followed below.

In the oligonucleotide strings, read from the 5' end, every base follows the letter of its sugar. An asterisk marks phosphorothioate; unmarked linkages are phosphodiester. Other units and linkages are bracketed, terminal groups are in braces. A string of capitals states the bases alone. e = 2'-O-(2-methoxyethyl) (MOE); [5mC] = 5-methylcytosine; d = 2'-deoxy (DNA)

Type in all cases: cell-based
Data set [1] deals with human Factor 7 mRNA. Put plainly: Dose-dependent antisense inhibition of human Factor 7 in HepB3 cells, transfection with electroporation. As to the method: (§1) The gapmers were also transfected via electroporation and their dose-dependent inhibition of human Factor 7 mRNA was measured. Cells were plated at a density of 20,000 cells per well and transfected via electroporation with 3.125 μM, 6.25 μM, 12.5 μM, 25 μM, 50 μM, and 100 μM concentrations of antisense oligonucleotide, as specified in Table 15. After a treatment period of approximately 16 hours, RNA was isolated from the cells and Factor 7 mRNA levels were measured by quantitative real-time PCR. Human Factor 7 primer probe set RTS 2927 was used to measure mRNA levels. Factor 7 mRNA levels were adjusted according to total RNA content, as measured by RIBOGREEN®. Results are presented as percent inhibition of Factor 7, relative to untreated control cells.
as §1, with “Cells were” for “The gapmers were also transfected via electroporation and their dose-dependent inhibition of human Factor 7 mRNA was measured. Cells were”, “in Table 16. After a” for “in Table 15. After a”, “cells and human Factor 7” for “cells and Factor 7”

Data set [2] has as its system human Factor 7 mRNA. Briefly: Antisense inhibition of human Factor 7 mRNA in HepB3 cells, lipofectin, 50 nM, real-time RT-PCR. As to conditions: HepB3 cells. Summed up: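 HepB3 cells were transfected by lipofectin with 50 nM antisense oligonucleotide and harvested after about 24 h. Factor 7 mRNA was measured by real-time RT-PCR (primer probe set RTS 2927 in some runs), normalized to RIBOGREEN total RNA, and reported as percent inhibition versus untreated control.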
On the technique in general: Real-time PCR tracks product formation cycle by cycle.

For data set [3], the system named is human Factor 7 mRNA. Briefly: Dose-dependent antisense inhibition of human Factor 7 in HepB3 cells, transfection with lipofectin. As to conditions: lipofectin, HepB3 cells, 16 hours. Summed up: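 HepB3 cells (4,000/well) lipofectin-transfected with antisense oligonucleotide at 3.125 or 6.25 up to 100 nM for ~16 h. Factor 7 mRNA measured by real-time RT-PCR with primer probe set RTS 2927, adjusted to RIBOGREEN total RNA; expressed as percent inhibition versus untreated control cells.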

[4] abbreviates: 3.125 μM, 16 hours (Example 7, Table 15).
The mark [5] stands for this setting: 3.125 μM, 16 hours (Example 8, Table 16).
Where [6] appears, read: 6.25 μM, 16 hours (Example 7, Table 15).
The mark [7] stands for this setting: 6.25 μM, 16 hours (Example 8, Table 16).
Where [8] appears, read: 12.5 μM, 16 hours (Example 7, Table 15).
[9] abbreviates: 12.5 μM, 16 hours (Example 8, Table 16).
The mark [10] stands for this setting: 25 μM, 16 hours (Example 7, Table 15).
Where [11] appears, read: 25 μM, 16 hours (Example 8, Table 16).
Where [12] appears, read: 50 μM, 16 hours (Example 7, Table 15).
The mark [13] stands for this setting: 50 μM, 16 hours (Example 8, Table 16).
The mark [14] stands for this setting: 100 μM, 16 hours (Example 7, Table 15).
Setting [15] is: 100 μM, 16 hours (Example 8, Table 16).
[16] abbreviates: gapmers (5-10-5, 3-14-3, 2-13-5 MOE) targeted to nucleobases 4868 to 4899 of SEQ ID NO: 1.

“422142 (antisense eG*eA*eG*eT*eT*d[5mC]*dT*dG*d[5mC]*dA*dG*dG*dA*dG*d[5mC]*eG*eG*e[5mC]*e[5mC]*eT) [compound 422142]”: the “percent inhibition of Factor 7 mRNA, relative to untreated control cells” value in the data set with human Factor 7 mRNA [1] (setting [4]) worked out at 26%; with human Factor 7 mRNA [1] (setting [5]), 34%; with human Factor 7 mRNA [1] (setting [6]) it was 47%; with human Factor 7 mRNA [1] (setting [7]), 47%; with human Factor 7 mRNA [1] (setting [8]), 63%; with human Factor 7 mRNA [1] (setting [9]), 62%. Further, the “percent inhibition of Factor 7 mRNA, relative to untreated control cells” value with human Factor 7 mRNA [1] (setting [10]) stood at 67%; in the data set with human Factor 7 mRNA [1] (setting [11]), 67%; in the data set with human Factor 7 mRNA [1] (setting [12]), 77%; with human Factor 7 mRNA [1] (setting [13]), 65%; with human Factor 7 mRNA [1] (setting [14]), 78%; in the data set on human Factor 7 mRNA [1] (setting [15]) it was 65%. Moreover, the “percent inhibition of Factor 7 mRNA, relative to untreated control cells” value is 16% in the data set with human Factor 7 mRNA [3] (3.125 nM); 51% in the data set with human Factor 7 mRNA [3] (12.5 nM); 66% in the data set on human Factor 7 mRNA [3] (25 nM); 72% in the data set with human Factor 7 mRNA [3] (50 nM); 68% in the data set on human Factor 7 mRNA [3] (100 nM); 34% with human Factor 7 mRNA [3]. Further, the “% Inhibition of human Factor 7 mRNA levels” value (shortened to “% Inhibition”) in the data set on human Factor 7 mRNA [2] (setting [16]) stood at 73%.
In the case of “422140 (antisense eG*eT*eT*e[5mC]*eT*dG*d[5mC]*dA*dG*dG*dA*dG*d[5mC]*dG*dG*e[5mC]*e[5mC]*eT*eA*eA) [compound 422140]”, the “percent inhibition of Factor 7 mRNA, relative to untreated control cells” value in the data set on human Factor 7 mRNA [1] (setting [4]) amounted to 29%; in the data set with human Factor 7 mRNA [1] (setting [6]), 34%; with human Factor 7 mRNA [1] (setting [8]), 51%; in the data set with human Factor 7 mRNA [1] (setting [10]), 64%; in the data set on human Factor 7 mRNA [1] (setting [12]), 69%; in the data set with human Factor 7 mRNA [1] (setting [14]) it was 77%. Moreover, the “percent inhibition of Factor 7 mRNA, relative to untreated control cells” value stood at 18% in the data set with human Factor 7 mRNA [3] (3.125 nM); 49% with human Factor 7 mRNA [3] (12.5 nM); 64% with human Factor 7 mRNA [3] (25 nM); 74% in the data set on human Factor 7 mRNA [3] (50 nM); 74% with human Factor 7 mRNA [3] (100 nM); 35% in the data set with human Factor 7 mRNA [3]. Besides, the “% Inhibition” value in the data set on human Factor 7 mRNA [2] (setting [16]) is recorded as 74%.
As for “422252 (antisense e[5mC]*eG*d[5mC]*d[5mC]*dG*dG*d[5mC]*dT*d[5mC]*dT*dG*d[5mC]*dT*d[5mC]*dA*eT*e[5mC]*e[5mC]*e[5mC]*e[5mC]) [compound 422252]”, the “percent inhibition of Factor 7 mRNA, relative to untreated control cells” value in the data set on human Factor 7 mRNA [1] (setting [4]) is listed as 23%; in the data set on human Factor 7 mRNA [1] (setting [6]), 12%; with human Factor 7 mRNA [1] (setting [8]), 26%; in the data set on human Factor 7 mRNA [1] (setting [10]) it was 38%; in the data set on human Factor 7 mRNA [1] (setting [12]) it was 58%; in the data set with human Factor 7 mRNA [1] (setting [14]), 80%. Further, the “percent inhibition of Factor 7 mRNA, relative to untreated control cells” value in the data set on human Factor 7 mRNA [3] (3.125 nM) is 18%; with human Factor 7 mRNA [3] (12.5 nM) it was 45%; in the data set with human Factor 7 mRNA [3] (25 nM) it was 61%; in the data set on human Factor 7 mRNA [3] (50 nM) it was 77%; in the data set on human Factor 7 mRNA [3] (100 nM), 87%; in the data set on human Factor 7 mRNA [3], 17%. Also, in the data set with human Factor 7 mRNA [2] (gapmers targeted to nucleobases 13760 to 13789 of SEQ ID NO: 1 (Table 10)), the “% Inhibition” value was found to be 70%.
Turning to “422296 (antisense e[5mC]*e[5mC]*dG*dA*dG*dT*dT*d[5mC]*dT*dG*d[5mC]*dA*dG*dG*dA*eG*e[5mC]*eG*eG*e[5mC]) [compound 422296]”, the “percent inhibition of Factor 7 mRNA, relative to untreated control cells” value with human Factor 7 mRNA [1] (setting [4]) came out at 62%; in the data set with human Factor 7 mRNA [1] (setting [5]), 47%; with human Factor 7 mRNA [1] (setting [6]), 40%; in the data set with human Factor 7 mRNA [1] (setting [7]), 44%; in the data set with human Factor 7 mRNA [1] (setting [8]) it was 56%; in the data set on human Factor 7 mRNA [1] (setting [9]), 70%. For the same substance, the “percent inhibition of Factor 7 mRNA, relative to untreated control cells” value with human Factor 7 mRNA [1] (setting [10]) is 56%; in the data set with human Factor 7 mRNA [1] (setting [11]), 78%; in the data set on human Factor 7 mRNA [1] (setting [12]) it was 82%; in the data set with human Factor 7 mRNA [1] (setting [13]), 80%; in the data set on human Factor 7 mRNA [1] (setting [14]), 84%; in the data set with human Factor 7 mRNA [1] (setting [15]), 82%. Besides, the “percent inhibition of Factor 7 mRNA, relative to untreated control cells” value was determined as 21% in the data set on human Factor 7 mRNA [3] (3.125 nM); 39% in the data set on human Factor 7 mRNA [3] (12.5 nM); 67% in the data set with human Factor 7 mRNA [3] (25 nM); 78% in the data set on human Factor 7 mRNA [3] (50 nM); 82% with human Factor 7 mRNA [3] (100 nM); 27% with human Factor 7 mRNA [3]. Moreover, the “% Inhibition” value in the data set on human Factor 7 mRNA [2] (setting [16]) came out at 74%.
On to “422217 (antisense eG*eA*eG*dT*dT*d[5mC]*dT*dG*d[5mC]*dA*dG*dG*dA*dG*d[5mC]*dG*dG*e[5mC]*e[5mC]*eT) [compound 422217]”, for which the “percent inhibition of Factor 7 mRNA, relative to untreated control cells” value is recorded as 15% with human Factor 7 mRNA [1] (setting [4]); 19% in the data set on human Factor 7 mRNA [1] (setting [6]); 29% in the data set with human Factor 7 mRNA [1] (setting [8]); 55% in the data set with human Factor 7 mRNA [1] (setting [10]); 61% with human Factor 7 mRNA [1] (setting [12]); 83% in the data set with human Factor 7 mRNA [1] (setting [14]). Also, the “percent inhibition of Factor 7 mRNA, relative to untreated control cells” value with human Factor 7 mRNA [3] (3.125 nM) came out at 8%; in the data set on human Factor 7 mRNA [3] (12.5 nM) it was 45%; with human Factor 7 mRNA [3] (25 nM) it was 63%; with human Factor 7 mRNA [3] (50 nM) it was 79%; with human Factor 7 mRNA [3] (100 nM), 83%; with human Factor 7 mRNA [3], 18%. Moreover, in the data set on human Factor 7 mRNA [2] (setting [16]), the “% Inhibition” value amounted to 75%.
With “422215 (antisense eG*eT*eT*d[5mC]*dT*dG*d[5mC]*dA*dG*dG*dA*dG*d[5mC]*dG*dG*d[5mC]*d[5mC]*eT*eA*eA) [compound 422215]”, the “percent inhibition of Factor 7 mRNA, relative to untreated control cells” value is listed as 11% with human Factor 7 mRNA [1] (setting [4]); 9% in the data set on human Factor 7 mRNA [1] (setting [6]); 31% with human Factor 7 mRNA [1] (setting [8]); 50% with human Factor 7 mRNA [1] (setting [10]); 68% with human Factor 7 mRNA [1] (setting [12]); 84% in the data set with human Factor 7 mRNA [1] (setting [14]). Besides, the “percent inhibition of Factor 7 mRNA, relative to untreated control cells” value with human Factor 7 mRNA [3] (3.125 nM) is 13%; with human Factor 7 mRNA [3] (12.5 nM) it was 54%; in the data set on human Factor 7 mRNA [3] (25 nM), 65%; in the data set with human Factor 7 mRNA [3] (50 nM) it was 84%; with human Factor 7 mRNA [3] (100 nM), 82%; with human Factor 7 mRNA [3] it was 30%. Besides, the “% Inhibition” value with human Factor 7 mRNA [2] (setting [16]) amounted to 73%.
